Assays:
[1] = test system: behaviors of compound-treated mice; assay: SmartCube behavioral signature and similarity analysis; assay type: in vivo; parameters: key to discrimination rate vs Clozapine / discrimination rate vs Olanzapine / discrimination rate vs Risperidone: discrimination rate as fraction; 0.5 = zero distinguishability; conditions: 25 mg/kg i.p.; for SmartCube behavioral signature: compared with reference drug classes; for discrimination rate vs Clozapine / discrimination rate vs Olanzapine / discrimination rate vs Risperidone: rate of 0.70 or lower = similar
Excerpt: In addition to the reversal of L-687,414 induced hyperlocomotion experiment as described above, some compounds of the present invention have been tested in SmartCube®, an automated system in which the behaviors of compound-treated mice in response to multiple challenges are captured by digital video and analyzed with computer algorithms (Roberds et al., Frontiers in Neuroscience, 2011, Vol. 5, Art. 103, 1-4). In this way, the neuro-pharmacological effects of a test compound can be predicted by similarity to major classes of compounds, such as antipsychotics, anxiolytics and antidepressants.
As mentioned above, some compounds have been tested in SmartCube®, an analytical system developed by PsychoGenics Inc.
SmartCube® was used to compare the behavioral signature of a test compound to a database of behavioral signatures obtained from a large set of clinically approved reference drugs, grouped per indications. In this way, the neuro-pharmacological effects of a test compound can be predicted by similarity to major classes of compounds, such as antipsychotics, anxiolytics and antidepressants. This approach is ideally suited to screen collections of existing drugs or drug candidates with previously unknown neuropharmacology, which could expedite the development of new and unexpected treatments for psychiatric disorders.
Some compounds of the present invention were injected i.p. at different doses 15 minutes before the test. At least 8 mice were used in each treatment group. Digital videos of the subjects were processed with computer vision algorithms to extract over 2000 dependent measures including frequency and duration of many different behavioral states. The results of the classifications are presented as bar charts for each compound and dose (mg/kg), the Y-axis indicates the relative probability that the test compound will show efficacy in the specific CNS indication.
Compounds of the present invention show similar signatures to those of atypical antipsychotics. An independent analysis was performed on the unclassified data to determine the similarity of the example compounds to active doses of known atypical antipsychotics. For this analysis, we use discrimination rate as the measure of separability between the two drugs, i.e. one drug's “distinguishability” from another. A rate equal to 50% (or 0.5) corresponds to zero distinguishability. […] In most cases, the example compounds show a similarity to risperidone, clozapine and olanzapine with a discrimination rate of ≦0.70.

[2] = test system: L-687,414-induced hyperlocomotion; assay: L-687,414-induced hyperlocomotion (Digiscan locomotor activity); assay type: in vivo, mouse; conditions: mice; for inhibition at 30 mg/kg: dose ip 30 mg/kg
Excerpt: The authors described that hyperlocomotion induced by L-687,414 was inhibited by a series of known antipsychotic drugs. […] These findings predict antipsychotic activity for the present compounds, making them useful for the treatment of positive (psychosis) and negative symptoms of schizophrenia, substance abuse, alcohol and drug addiction, obsessive-compulsive disorders, cognitive impairment, bipolar disorders, mood disorders, major depression, resistant depression, anxiety disorders, Alzheimer's disease, autism, Parkinson's disease, chronic pain, borderline personality disorder, sleep disturbances, chronic fatigue syndrome, stiffness, antiinflammatory effects in arthritis and balance problems.
The described compounds of formula I reduce L-687,414-induced hyperlocomotion. This was assessed by using a computerized Digiscan 16 Animal Activity Monitoring System (Omnitech Electronics, Columbus, Ohio) to quantify locomotor activity. Animals were kept under a 12 h light/dark cycle and experiments were performed during the light period. Each activity monitoring chamber consisted of a Plexiglas box (41×41×28 cm; W×L×H) with sawdust bedding on the floor surrounded by invisible horizontal and vertical infrared sensor beams. The test boxes were divided by a Plexiglas cross providing each mouse with 20×20 cm of moving space. Cages were connected to a Digiscan Analyzer linked to a computer that constantly collected the beam status information. Records of photocell beam interruptions for individual animals were taken every 5 min over the duration of the experimental session and the sum of the first 6 periods was used as the final parameter. Compounds were administered either p.o. 15 min before a s.c. injection of 50 mg/kg of L-687,414, or i.p. at the same time as a s.c. injection of 50 mg/kg of L-687,414. Mice were then transferred from their home cage to the recording chambers for a 15-min habituation phase allowing free exploration of the new environment. Horizontal activity was then recorded for a 30-min time period. The % inhibition of L-687,414-induced hyperlocomotion was calculated according to the equation: ((Veh+L-687,414 horizontal activity−drug+L-687,414 horizontal activity)Veh+L-687,414 horizontal activity)×100
ID50 values, defined as doses of each compound producing 50% inhibition of L-687,414-induced hyperlocomotion, were calculated by linear regression analysis of a dose-response data using an Excel-based computer-fitting program.
As data was not presupposed to be normally distributed, groups treated with test compounds were statistically compared with the control (vehicle-treated) group using one-tailed Mann Whitney U tests. In statistics, the Mann-Whitney Utest (also called the Mann-Whitney-Wilcoxon (MWW) or Wilcoxon rank-sum test) is a non-parametric statistical hypothesis test for assessing whether one of two samples of independent observations tends to have larger values than the other. It is one of the most well-known non-parametric significance tests. […] P values given in table 1 are one-tailed since only decreases in locomotion were expected and tested for (Mann, H. B., Whitney, D. R. (1947), “On a Test of Whether one of Two Random Variables is Stochastically Larger than the Other”, Annals of Mathematical Statistics, 18 (1), 50-60).

[3] = Mus musculus, at the same time as s.c. 50 mg/kg L-687,414

Question: How did the SmartCube behavioral signature [1] turn out when `Cc1ncc(-c2ccc3c(c2)N(C)C(=O)C3(C)C)o1` [Example 71, 1,3,3-Trimethyl-6-(2-methyloxazol-5-yl)indolin-2-one] was run?
Answer: The SmartCube behavioral signature was “similarity to atypical antipsychotics”.

Question: What about the “discrimination rate vs Clozapine” value [1] of the same molecule?
Answer: Its value is 0.79.

Question: What about the “discrimination rate vs Olanzapine” value [1] of the same molecule?
Answer: The value was 0.66.

Question: And the “discrimination rate vs Risperidone” value [1]?
Answer: The value was 0.63.

Question: What about the inhibition at 30 mg/kg [2, 3] of the same molecule?
Answer: Its inhibition at 30 mg/kg is 68.5%.

Question: Which SmartCube behavioral signature [1] does the source give for `Cc1ncc(-c2ccc3c(c2)N(CCCS(=O)(=O)C2CC2)C(=O)C3(C)C)cn1` [Example 54, 1-(3-(Cyclopropylsulfonyl)propyl)-3,3-dimethyl-6-(2-methylpyrimidin-5-yl)indolin-2-one] here?
Answer: Its SmartCube behavioral signature is “similarity to atypical antipsychotics”.

Question: And the “discrimination rate vs Clozapine” value [1]?
Answer: The value was 0.69.

Question: And the “discrimination rate vs Olanzapine” value [1]?
Answer: Its value is 0.61.

Question: And the “discrimination rate vs Risperidone” value [1]?
Answer: The value was 0.63.

Question: How did the SmartCube behavioral signature [1] turn out when `CN1C(=O)C(C)(C)c2ccc(-c3cccnn3)cc21` [Example 13, 1,3,3-Trimethyl-6-(pyridazin-3-yl)indolin-2-one] was run?
Answer: The SmartCube behavioral signature was “similarity to atypical antipsychotics”.

Question: What about the “discrimination rate vs Clozapine” value [1] of the same molecule?
Answer: The value was 0.69.

Question: And the “discrimination rate vs Olanzapine” value [1]?
Answer: The value was 0.70.

Question: What about the “discrimination rate vs Risperidone” value [1] of the same molecule?
Answer: The value was 0.72.

Question: What about the inhibition at 30 mg/kg [2, 3] of the same molecule?
Answer: Its inhibition at 30 mg/kg is 76.9%.

Question: Which results are given for `CC1(C)C(=O)Nc2cc(-n3ccnc3)ccc21` [Example 58, 6-Imidazol-1-yl-3,3-dimethyl-1,3-dihydro-indol-2-one]?
Answer: SmartCube behavioral signature [1]: similarity to atypical antipsychotics; discrimination rate vs Clozapine [1]: 0.63; discrimination rate vs Olanzapine [1]: 0.69; discrimination rate vs Risperidone [1]: 0.66

Question: Which inhibition at 30 mg/kg [2, 3] does the source give for `CN1C(=O)C(C)(C)c2ccc(-c3ccncc3)c(F)c21` [Example 39, 7-Fluoro-1,3,3-trimethyl-6-pyridin-4-yl-1,3-dihydro-indol-2-one] here?
Answer: The inhibition at 30 mg/kg was 77.6%.

Question: For `Cc1ncccc1-c1ccc2c(c1)NC(=O)C2(C)C` [Example 19, 3,3-Dimethyl-6-(2-methylpyridin-3-yl)indolin-2-one], which inhibition at 30 mg/kg [2, 3] is on record?
Answer: The inhibition at 30 mg/kg was 61.6%.

Question: How did the inhibition at 30 mg/kg [2, 3] turn out when `CC1(C)C(=O)Nc2cc(-c3ccnnc3)ccc21` [Example 17, 3,3-Dimethyl-6-(pyridazin-4-yl)indolin-2-one] was run?
Answer: The inhibition at 30 mg/kg was 66.7%.

Question: How did the inhibition at 30 mg/kg [2, 3] turn out when `Cc1nnc(-c2ccc3c(c2)N(C)C(=O)C3(C)C)o1` [Example 93, 1,3,3-Trimethyl-6-(5-methyl-1,3,4-oxadiazol-2-yl)indolin-2-one] was run?
Answer: Its inhibition at 30 mg/kg is 68.6%.

Question: `CN1C(=O)C(C)(C)c2ccc(-c3cnc4c(c3)CCC4)cc21` [Example 23, 6-(6,7-Dihydro-5H-cyclopenta[b]pyridin-3-yl)-1,3,3-trimethylindolin-2-one] was tested. Which inhibition at 30 mg/kg [2, 3] did it give?
Answer: The inhibition at 30 mg/kg was 81.6%.

Question: For `CN1C(=O)C(C)(C)c2ccc(-c3ccc4nccn4c3)cc21` [Example 30, 6-(Imidazo[1,2-a]pyridin-6-yl)-1,3,3-trimethylindolin-2-one], which inhibition at 30 mg/kg [2, 3] is on record?
Answer: Its inhibition at 30 mg/kg is 49.1%.

Question: Which inhibition at 30 mg/kg [2, 3] does the source give for `Cc1ncc(-c2ccc3c(c2)N(C)C(=O)C3(C)C)[nH]1` [Example 67, 1,3,3-Trimethyl-6-(2-methyl-1H-imidazol-5-yl)indolin-2-one] here?
Answer: Its inhibition at 30 mg/kg is 42.6%.

Question: Which inhibition at 30 mg/kg [2, 3] does the source give for `Cc1ncc(-c2ccc3c(c2)N(CC(O)C(F)(F)F)C(=O)C3(C)C)cn1` (stereo not shown) [Example 130, 3,3-Dimethyl-6-(2-methylpyrimidin-5-yl)-1-(3,3,3-trifluoro-2-hydroxypropyl)indolin-2-one] here?
Answer: Its inhibition at 30 mg/kg is 89.4%.

Question: Which inhibition at 20 mg/kg ([2]; Mus musculus, dose ip 20 mg/kg, at the same time as s.c. 50 mg/kg L-687,414) does the source give for `Cc1cc(-c2ncc3c(n2)N(C2CC2)C(=O)C3(C)C)ccn1` [Example 114, 7-Cyclopropyl-5,5-dimethyl-2-(2-methylpyridin-4-yl)-5H-pyrrolo[2,3-d]pyrimidin-6(7H)-one] here?
Answer: Its inhibition at 20 mg/kg is 42%.

Question: `Cc1c(-c2cccnc2)ccc2c1N(C)C(=O)C2(C)C` [Example 36, 1,3,3,7-Tetramethyl-6-(pyridin-3-yl)indolin-2-one] was tested. Which inhibition at 30 mg/kg [2, 3] did it give?
Answer: The inhibition at 30 mg/kg was 79.3%.

Question: How did the inhibition at 30 mg/kg [2, 3] turn out when `COCC(CN1C(=O)C(C)(C)c2ccc(-c3cnc(C)nc3)cc21)OC` (stereo not shown) [Example 175, 1-(2,3-dimethoxypropyl)-3,3-dimethyl-6-(2-methylpyrimidin-5-yl)indolin-2-one] was run?
Answer: The inhibition at 30 mg/kg was 95.3%.

Question: How did the inhibition at 30 mg/kg [2, 3] turn out when `CC1(C)C(=O)Nc2cc(-c3cncnc3)ccc21` [Example 8, 3,3-Dimethyl-6-(pyrimidin-5-yl)indolin-2-one] was run?
Answer: The inhibition at 30 mg/kg was 52.5%.

Question: How did the inhibition at 30 mg/kg [2, 3] turn out when `CC1(C)C(=O)Nc2cc(-c3cn(C4CC4)cn3)ccc21` [Example 113, 6-(1-Cyclopropyl-1H-imidazol-yl)-3,3-dimethylindolin-2-one] was run?
Answer: The inhibition at 30 mg/kg was 83.9%.

Question: `Cc1cn(-c2ccc3c(c2)NC(=O)C3(C)C)cn1` [Example 63, 3,3-Dimethyl-6-(4-methyl-1H-imidazol-1-yl)indolin-2-one] was tested. Which inhibition at 30 mg/kg [2, 3] did it give?
Answer: Its inhibition at 30 mg/kg is 68.9%.

Question: For `Cc1ncc(-c2ccc3c(c2)N(CCS(C)(=O)=O)C(=O)C3(C)C)cn1` [Example 57], which inhibition at 30 mg/kg [2, 3] is on record?
Answer: Its inhibition at 30 mg/kg is 79.9%.

Question: How did the ID50 po ([2]; dose producing 50% inhibition of L-687,414-induced hyperlocomotion, p.o. 15 min before s.c. 50 mg/kg L-687,414) turn out when `CN1C(=O)C(C)(C)c2ccc(-c3cnc4c(c3)NCCO4)cc21` [Example 25, 6-(2,3-Dihydro-1H-pyrido[2,3-b][1,4]oxazin-7-yl)-1,3,3-trimethylindolin-2-one] was run?
Answer: Its ID50 po is 3.03 mg/kg.
